The text below walks through data of patent US5538977A, “3-Substituted-7-[3-(imidazol-1-yl)phenyl]-pyrazolo[1,5-a]pyrimidines” (American Cyanamid Company, priority 1995, dated 1996).

Assay [1] in a line: Nonconditioned passive avoidance (conflict) test in rats. It counts as in vivo, rat (Wistar strain). The settings on record: 25 mg/kg oral or i.p., 30 to 60 min, active if number of shocks received is significantly higher than control group by Mann-Witney U test. The method, then:
Another test which has been used to assess antianxiety effects is a nonconditioned passive avoidance procedure described by [J. R. Vogel, B. Beer and D. E. Clody, "A Simple and Reliable Conflict Procedure for Testing Anti-Anxiety Agents", Psychopharmacologia, 21, 1-7(1971)]. A conflict situation is induced in rats by a modification of this method.
Groups of 6 naive, Wistar strain rats, weighing 200-240 g each were deprived of water for 48 hours and food for 24 hours. The test compounds were administered in single or graded, oral or intraperitoneal doses, suspended in a 2% starch vehicle containing 0.5% v/v polyethylene glycol and one drop of polysorbate 80. Control animals received the vehicle alone. At 30 to 60 minutes each rat was placed in an individual plexiglass chamber. Water was available ad libitum from a tap located in the rear of the chamber. A 0.7 milliampere DC shocking current was established between the stainless steel grid floor and the tap. After 20 licks of nonshocked drinking, a shock was delivered for 2 seconds and then further shocks were delivered on a ratio of one shock for 2 seconds for every 20 licks. This was continued for a total of 3 minutes. The number of shocks taken by each rat during the 3 minute interval was recorded and compared to a control group. […]

The nature of assay [2]: Protection against clonic seizures caused by pentylenetetrazole in rats. The class given is in vivo, rat. The settings on record: pentylenetetrazole 23 mg/kg i.v. at 30 or 60 min. As for the experimental part: The anti-anxiety and anticonvulsant properties of the novel compounds of the present invention have been established in a test which indicates anxiolytic activity by the measure of protection from convulsions resulting from the administration of pentylenetetrazole. Single or graded dose levels of the test compounds were administered orally or intraperitoneally in a 2% starch vehicle, containing 0.5% v/v polyethylene glycol and one drop of Polysorbate 80 to groups of at least 4 rats. At 30 or 60 minutes, the rats were treated intravenously with pentylenetetrazole at a dose of 23 mg/kg of body weight. This dose is estimated to cause clonic seizures in 99% of unprotected rats. It has Been reported [R. T. Hill and D. H. Tedeschi, "Animal Testing and Screening Procedures in Evaluating Psychotropic Drugs" in "An Introduction to Psychopharmacology",Eds. R. R. Rech and K. E. Moore, Raven Press, N.Y., pp 237-288 (1971)]that there is a high degree of correlation between antagonism of pentylenetetrazole seizures in rats and anti-anxiety or anticonvulsant effects in higher warm-blooded animals.

The subject of assay [3] is brain-specific receptors of rats (3H-benzodiazepine binding). Description: Inhibition of the binding of 3H-benzodiazepine to brain-specific receptors of rats. Also on record: species or system rat (Wistar strain). The settings on record: rat cortex P2-fraction; 3H-diazepam 1.5 nM or 3H-flunitrazepam 1.0 nM; pH 7.4; 30 min in ice; test concentration not given.
The mark [4] stands for this setting: Rattus norvegicus, 25 mg/kg oral or i.p., read-out: % of Rats Protected.

The structures appear in SMILES notation.

In the case of `Cc1cn(-c2cccc(-c3ccnc4c(C#N)cnn34)c2)cn1` [Example 20, 7-[3-(4-methyl-1H-imidazol-1-yl)-phenyl]pyrazolo[1,5-a]pyrimidine-3-carbonitrile], the “Nonconditional Passive Avoidance Test result” value in assay [1] was “inactive”. The responders at 25 mg/kg in assay [2] (setting [4]) is 0%.
`CCOC(=O)c1cnn2c(-c3cccc(-n4ccnc4C)c3)ccnc12` [Example 21, ethyl 7-[3-(2-methyl-1H-imidazol-1-yl)phenyl]pyrazolo[1,5-a]pyrimidine-3-carboxylate]: the “Nonconditional Passive Avoidance Test result” value in assay [1] is “inactive”. Besides, the “% Inhibition (result in words)” value in assay [3] is “inactive”. Also, the responders at 25 mg/kg in assay [2] (setting [4]) came to 0%.
For `Cc1cn(-c2cccc(-c3ccnc4c(C(=O)c5ccco5)cnn34)c2)cn1` [Example 9, 2-furanyl[7-[3-(4-methyl-1H-imidazol-1-yl)phenyl]pyrazolo[1,5-a]pyrimidin-3-yl]methanone compd. with dichloromethane (20:1)], in assay [1], the “Nonconditional Passive Avoidance Test result” value was “active”. Moreover, in assay [3], the “% Inhibition” value came out at 98%. In addition, in assay [2] (setting [4]), the responders at 25 mg/kg came out at 50%.
Consider `Cc1cn(-c2cccc(-c3ccnc4c(C(=O)c5cccs5)cnn34)c2)cn1` [Example 8, [7-[3-(4-methyl-1H-imidazol-1-yl)-phenyl]pyrazolo[1,5-a]pyrimidin-3-yl]-2-thienyl-methanone], for which the “Nonconditional Passive Avoidance Test result” value in assay [1] is listed as “active”. Further, the “% Inhibition” value in assay [3] is listed as 75%. Also, the responders at 25 mg/kg in assay [2] (setting [4]) is 75%.
With `N#Cc1cnn2c(-c3cccc(-n4ccnc4)c3)ccnc12` [Example 3, 7-[3-(1H-imidazol-1-yl)phenyl]-pyrazolo[1,5-a]pyrimidine-3-carbonitrile], the “Nonconditional Passive Avoidance Test result” value in assay [1] is “active”. Also, the “% Inhibition” value in assay [3] was 44%. Further, in assay [2] (setting [4]), the responders at 25 mg/kg was found to be 100%.
Consider `Cc1nccn1-c1cccc(-c2ccnc3c(C(=O)c4ccco4)cnn23)c1` [Example 7, 2-furanyl[7-[3-(2-methyl-1H-imidazol-1-yl)phenyl]pyrazolo[1,5-a]pyrimidin-3-yl]methanone compd. with dichloromethane (100:3)], for which, in assay [1], the “Nonconditional Passive Avoidance Test result” value is “active”. Moreover, the “% Inhibition” value in assay [3] is 101%. In assay [2] (setting [4]), the responders at 25 mg/kg was determined as 25%.
As for `O=C(c1ccco1)c1cnn2c(-c3cccc(-n4ccnc4)c3)ccnc12` [Example 5, 2-furanyl[7-[3-(1H-imidazol-1-yl)-phenyl]-pyrazolo[1,5-a]pyrimidin-3-yl]methanone], the “Nonconditional Passive Avoidance Test result” value in assay [1] is reported as “active”. Besides, the “% Inhibition” value in assay [3] is given as 72%. For the same compound, the responders at 25 mg/kg in assay [2] (setting [4]) came out at 100%.
Consider `CCc1nccn1-c1cccc(-c2ccnc3c(C(=O)c4ccccc4)cnn23)c1` [Example 15, [7-[3-(2-ethyl-1H-imidazol-1-yl)-phenyl]pyrazolo[1,5-a]pyrimidin-3-yl]-phenylmethanone], for which the “Nonconditional Passive Avoidance Test result” value in assay [1] was “active”. For the same compound, the “% Inhibition” value in assay [3] was 98%. In addition, in assay [2] (6.25 mg/kg oral or i.p.), the “% of Rats Protected (result in words)” value was “active”.
Take `Cc1cn(-c2cccc(-c3ccnc4c(C(=O)c5ccccc5)cnn34)c2)cn1` [Example 14, [7-[3-(4-methyl-1H-imidazol-1-yl)-phenyl]pyrazolo[1,5-a]pyrimidin-3-yl]-phenylmethanone compd. with dichloromethane (20:1)]: the “Nonconditional Passive Avoidance Test result” value in assay [1] is reported as “active”. Further, in assay [3], the “% Inhibition” value is recorded as 93%. The responders at 25 mg/kg in assay [2] (setting [4]) amounted to 100%.
Turning to `Cc1nccn1-c1cccc(-c2ccnc3c(Cl)cnn23)c1` [Example 12, 3-chloro-7-[3-(2-methyl-1H-imidazol-1-yl)phenyl]pyrazolo[1,5-a]pyrimidine compd. with dichloromethane (20:1)], in assay [1], the “Nonconditional Passive Avoidance Test result” value is given as “active”. The responders at 25 mg/kg in assay [2] (setting [4]) stood at 100%.
On to `c1cc(-c2ccnc3ccnn23)cc(-n2ccnc2)c1` [Example 6, 7-[3-(1H-imidazol-1-yl)-phenyl]pyrazolo[1,5-a]pyrimidine], for which the “Nonconditional Passive Avoidance Test result” value in assay [1] is “inactive”. The “% Inhibition” value in assay [3] is 72%. The responders at 25 mg/kg in assay [2] (setting [4]) came to 0%.
The like results for `Cc1nccn1-c1cccc(-c2ccnc3c(C(=O)c4cccs4)cnn23)c1` [Example 10, [7-[3-(2-methyl-1H-imidazol-1-yl)-phenyl]pyrazolo[1,5-a]pyrimidin-3-yl]-2-thienyl-methanone] were, in that order, “active”, 99% and 100%.
Consider `O=C(c1ccncc1)c1cnn2c(-c3cccc(-n4ccnc4)c3)ccnc12` [Example 17, [7-[3-(1H-imidazol-1-yl)-phenyl]pyrazolo[1,5-a]pyrimidin-3-yl]-4-pyridinylmethanone], for which the “Nonconditional Passive Avoidance Test result” value in assay [1] is on record as “active”. Moreover, the “% Inhibition” value in assay [3] was found to be 90%. The “% of Rats Protected (result in words)” value in assay [2] (25 mg/kg oral or i.p.) was “inactive”.
For `Cc1nccn1-c1cccc(-c2ccnc3c(C#N)c(N)nn23)c1.Cl` [Example 19, 2-amino-7-[3-(2-methyl-1H-imidazol-1-yl)phenyl]pyrazolo-[1,5-a]pyrimidine-3-carbonitrile monohydrochloride], the “Nonconditional Passive Avoidance Test result” value in assay [1] is reported as “active”. For the same compound, the responders at 3.1 mg/kg in assay [2] (Rattus norvegicus, 3.1 mg/kg oral or i.p., read-out: % of Rats Protected) turned out to be 50%.
With `O=C(c1cccs1)c1cnn2c(-c3cccc(-n4ccnc4)c3)ccnc12` [Example 11, [7-[3-(1H-imidazol-1-yl)phenyl]pyrazolo[1,5-a]pyrimidin-3-yl]-2-thienyl-methanone], in assay [1], the “Nonconditional Passive Avoidance Test result” value is “inactive”. In addition, the “% Inhibition” value in assay [3] turned out to be 100%. Further, the responders at 25 mg/kg in assay [2] (setting [4]) was found to be 50%.
On to `Cc1nccn1-c1cccc(-c2ccnc3ccnn23)c1` [Example 13, 7-[3-(2-methyl-1H-imidazol-1-yl)-phenyl]pyrazolo[1,5-a]pyrimidine], for which the “Nonconditional Passive Avoidance Test result” value in assay [1] is “active”. Also, in assay [2] (setting [4]), the responders at 25 mg/kg amounted to 50%.
As to `O=C(c1ccccc1)c1cnn2c(-c3cccc(-n4ccnc4)c3)ccnc12` [Example 4, [7-[3-(1H-imidazol-1-yl)phenyl]pyrazolo[1,5-a]pyrimidin-3-yl]phenylmethanone], in assay [1], the “Nonconditional Passive Avoidance Test result” value was “inactive”. The “% Inhibition” value in assay [3] came to 94%. Besides, the responders at 25 mg/kg in assay [2] (setting [4]) amounted to 100%.
Take `Cc1nccn1-c1cccc(-c2ccnc3c(C#N)cnn23)c1` [Example 2, 7-[3-(2-methyl-1H-imidazol-1-yl)-phenyl]pyrazolo[1,5-a]pyrimidine-3-carbonitrile compd. with dichloromethane 20:1]: in assay [1], the “Nonconditional Passive Avoidance Test result” value was “inactive”. Further, the “% Inhibition” value in assay [3] is on record as 88%. For the same compound, in assay [2] (setting [4]), the responders at 25 mg/kg stood at 75%.
As for `Cc1nccn1-c1cccc(-c2ccnc3c(C(=O)c4ccccc4)cnn23)c1` [Example 1, [7-[3-(2-Methyl-1H-imidazol-1-yl)phenyl]pyrazolo[1,5-a]pyrimidin-3-yl]phenylmethanone compound with dichloromethane (20:1;)], the “Nonconditional Passive Avoidance Test result” value in assay [1] is given as “active”. In addition, the “% Inhibition” value in assay [3] is given as 98%. For the same compound, in assay [2] (setting [4]), the responders at 25 mg/kg was determined as 100%.

One may read the % Inhibition as the change of the read-out against control, counted positive when it falls.
